Publication PMC11042424, “Development of a First-in-Class RIPK1 Degrader to Enhance Antitumor Immunity” (Research Square, 2024)

What was measured:
RIPK1 [1] = target: T1, RIPK1 (Mus musculus, UniProt Q60855); test: RIPK1 degradation in B16F10 mouse melanoma cells, Western blotting; assay type: cell-based; parameters: Quantification of RIPK1 levels in both Jurkat and B16F10 cells; endogenous in cells; host or cells: B16F10; conditions: pre-treatment 4 hours, then LD4172 4 hours
T1 sequence (Q60855 1-656): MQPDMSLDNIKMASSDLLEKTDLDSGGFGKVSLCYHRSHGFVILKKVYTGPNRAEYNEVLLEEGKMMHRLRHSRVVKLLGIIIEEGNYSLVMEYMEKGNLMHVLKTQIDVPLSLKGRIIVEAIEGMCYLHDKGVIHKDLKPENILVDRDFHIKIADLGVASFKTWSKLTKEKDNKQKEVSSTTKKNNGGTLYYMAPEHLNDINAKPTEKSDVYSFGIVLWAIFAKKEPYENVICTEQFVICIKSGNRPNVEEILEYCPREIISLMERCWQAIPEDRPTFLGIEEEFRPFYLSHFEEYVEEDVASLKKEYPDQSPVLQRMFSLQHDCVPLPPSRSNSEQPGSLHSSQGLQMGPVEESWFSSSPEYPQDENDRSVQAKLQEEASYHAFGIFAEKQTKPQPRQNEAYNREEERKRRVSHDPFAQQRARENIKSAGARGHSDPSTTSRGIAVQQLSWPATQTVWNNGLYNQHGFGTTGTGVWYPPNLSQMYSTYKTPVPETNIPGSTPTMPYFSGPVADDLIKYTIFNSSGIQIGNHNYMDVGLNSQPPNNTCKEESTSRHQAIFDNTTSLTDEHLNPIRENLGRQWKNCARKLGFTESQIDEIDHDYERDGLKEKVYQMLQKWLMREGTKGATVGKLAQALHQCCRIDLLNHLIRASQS
Description: (§1) Figure 1 Design and screen of RIPK1 PROTACs. A, Chemical structure and docking modeling of type II inhibitor 1 with the kinase domain of RIPK1 (PDB: 4NEU). The group exposed to solvent region is highlighted with yellow circle. B, Chemical structure and co-crystal structure of type III inhibitor 2 in complex with RIPK1 (PDB: 6R5F). The solventexposed group of inhibitor 2 is highlighted with yellow circle. C, A small library design of RIPK1 PROTACs. Either Type II inhibitor 1 or type III inhibitor 2 is conjugated with various E3 ligase ligands or adamantane tag to generate a small library of RIPK1 PROTACs. D, Quantification of RIPK1 levels in Jurkat cells treated with indicated compounds for 24 h at 0, 0.1, 1 and 10 μM, followed by Western blotting. E, Quantification of D. F, Quantification of RIPK1 levels in both Jurkat and B16F10 cells treated with type II inhibitor-based PROTACs with different linker lengths for 24 h, followed by Western blotting. G, Quantification of F.
(§2) Figure 2 LD4172, a RIPK1 PROTAC, induces potent and highly specific degradation of RIPK1 in a panel of cell lines. […] B, Quantification of RIPK1 levels in both Jurkat and B16F10 cells treated with LD4172 at indicated concentrations for 24 h, followed by Western blotting. […] G, Time-resolved fluorescence resonance energy transfer (TR-FRET) based biochemical binding assay for RIPK1. […]

RIPK1 [2] = target: T2, RIPK1 (Homo sapiens, UniProt Q13546); test: RIPK1 degradation in Jurkat cells, Western blotting; assay type: cell-based; conditions: pre-treatment 4 hours, then LD4172 4 hours
T2 construct: Quantification of RIPK1 levels in Jurkat cells treated with indicated compounds for 24 h; endogenous in cells; host or cells: Jurkat
T2 sequence (Q13546 1-671): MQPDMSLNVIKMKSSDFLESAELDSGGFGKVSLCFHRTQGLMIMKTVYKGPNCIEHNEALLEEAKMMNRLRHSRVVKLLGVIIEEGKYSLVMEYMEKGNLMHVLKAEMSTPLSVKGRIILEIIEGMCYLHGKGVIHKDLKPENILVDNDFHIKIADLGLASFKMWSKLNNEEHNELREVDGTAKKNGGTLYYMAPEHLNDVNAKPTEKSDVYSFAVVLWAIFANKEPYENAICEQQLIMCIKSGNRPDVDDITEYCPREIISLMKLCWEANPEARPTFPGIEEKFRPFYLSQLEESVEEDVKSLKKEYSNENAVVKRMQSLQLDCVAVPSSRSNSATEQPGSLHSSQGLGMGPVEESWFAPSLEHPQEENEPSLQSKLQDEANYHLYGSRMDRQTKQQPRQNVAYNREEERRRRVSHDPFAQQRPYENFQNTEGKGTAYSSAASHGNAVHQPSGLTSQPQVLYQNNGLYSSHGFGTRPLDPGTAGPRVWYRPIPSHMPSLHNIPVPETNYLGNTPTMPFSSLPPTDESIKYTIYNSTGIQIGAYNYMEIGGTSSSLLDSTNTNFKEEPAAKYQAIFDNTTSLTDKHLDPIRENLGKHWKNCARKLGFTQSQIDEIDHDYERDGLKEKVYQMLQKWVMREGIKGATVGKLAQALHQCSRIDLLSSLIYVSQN
Description: as §1, §2

RIPK1 and VHL = target: T3, RIPK1 and VHL (Homo sapiens, UniProt P40337+Q13546); test: NanoBRET live-cell ternary complex assay; assay type: cell-based; conditions: HEK293 cells co-transfected with nLuc-RIPK1 and VHL-Halo
T3 construct: Addgene backbone 87075 (RIPK1 vector, made in house) N273A; host or cells: HEK293T
Experimental: Figure 2 LD4172, a RIPK1 PROTAC, induces potent and highly specific degradation of RIPK1 in a panel of cell lines. A, Chemical structures of RIPK1 PROTAC, LD4172, and its negative control, LD4172-NC. […] B, Quantification of RIPK1 levels in both Jurkat and B16F10 cells treated with LD4172 at indicated concentrations for 24 h, followed by Western blotting. C, DC50 and Dmax of LD4172 in various human and mouse cell lines. DC50, the drug concentration causing 50% protein degradation; Dmax, the maximum level of protein degradation. D, RIPK1 degradation kinetics induced by LD4172 treatment (1 μM) and resynthesis kinetics upon washout of LD4172 in both Jurkat and B16F10 cells. […] G, Time-resolved fluorescence resonance energy transfer (TR-FRET) based biochemical binding assay for RIPK1. […] In total, ~10,000 proteins were quantified in the proteomics experiment. […]
Human RIPK1 cDNA insert was cloned into pLenti6.2-ccdB-nLuc plasmid (87075, Addgene, a kind gift from Taipale Lab) using gateway cloning kit (11791020, Thermo) and standard protocol to obtain pLenti6.2-RIPK1-nLuc fusion vector. […] Immediately before reading the plate, prepare 4x concentrated NanoGlo nLuc substrate (N157, Promega) was prepared by diluting the stock into Opti-MEM 1,000-fold, and the NanoGlo substrate was then added into each well to bring the final concentration to 1x. […]

[3] = target: T4, nLuc-RIPK1 fusion protein (Homo sapiens, UniProt Q13546); test: NanoBRET based in-cell RIPK1 target engagement
T4 construct: expressed in transfected cells
T4 sequence (Q13546 1-671): T2 sequence (Q13546 1-671)
Experimental: Figure 2 LD4172, a RIPK1 PROTAC, induces potent and highly specific degradation of RIPK1 in a panel of cell lines. A, Chemical structures of RIPK1 PROTAC, LD4172, and its negative control, LD4172-NC. […] B, Quantification of RIPK1 levels in both Jurkat and B16F10 cells treated with LD4172 at indicated concentrations for 24 h, followed by Western blotting. C, DC50 and Dmax of LD4172 in various human and mouse cell lines. DC50, the drug concentration causing 50% protein degradation; Dmax, the maximum level of protein degradation. D, RIPK1 degradation kinetics induced by LD4172 treatment (1 μM) and resynthesis kinetics upon washout of LD4172 in both Jurkat and B16F10 cells. E, Quantification of D. The degradation half-life of RIPK1 induced by LD4172 (1 μM) is <2 h in Jurkat and B16F10 cells. […] F, NanoBRET based in-cell RIPK1 target engagement. HEK293 cells were transfected with a plasmid expressing nLuc-RIPK1 fusion protein for 24 h, followed by incubating with a RIPK1 NanoBRET tracer (500 nM) and different concentrations of LD4172 and LD4172-NC (n=3). G, Time-resolved fluorescence resonance energy transfer (TR-FRET) based biochemical binding assay for RIPK1. GST-tagged human RIPK1 (1 nM), Tb-labeled anti-GST antibody (0.3 nM), a RIPK1 TR-FRET tracer (350 nM) and different concentrations of LD4172 (n=3) were incubated for 2 hours, followed by TR-FRET measurements with an excitation wavelength at 340 nm and emission wavelengths at 495 and 520 nm. H, NanoBRET based in-cell assay for ternary complex formation. HEK293T cells were co-transfected with nLuc-RIPK1 and VHL-HaloTag plasmids for 24 h, followed by treatment with indicated concentrations of LD4172 or LD4172-NC (n=3). I, LD4172 induced RIPK1 degradation depends on ternary complex formation, neddylation and proteasome activity. Representative immunoblots of RIPK1 in both Jurkat and B16F10 cells. Cells were treated with RIPK1 inhibitor (T2I), VHL ligand, a neddylation inhibitor (MLN4924) or a proteasome inhibitor (Carfilzomib) at indicated concentrations for 4 hours, followed by LD4172 treatment for 4 hours. J, Proteome profiling of LD4172 induced protein degradation. MDA-MB- 231 cells were treated with LD4172 (200 nM) or LD4172-NC (200 nM) for 6 h (n=3). In total, ~10,000 proteins were quantified in the proteomics experiment. […] Blue dots represent kinases that are inhibited by the warhead of LD4172 but not degraded by LD4172.
To elucidate the formation of a binary complex during RIPK1 degradation, we developed a competitive NanoBRET (Nano-Bioluminescence Resonance Energy transfer)-based target engagement (TE) assay to quantify the binding between RIPK1 and LD4172 in cells[12],[13]. First, we developed a RIPK1 tracer by conjugating the LD4172 warhead T2I with a BODIPY-590 fluorescent dye, dubbed T2–590 (refer to Supporting Information for details). The dissociation equilibrium constant (Kd) between the tracer and RIPK1 was determined to be 0.5 μM by titrating the tracer in HEK293T cells expressing a nLuc-RIPK1 fusion protein. […] This is usually expected, considering that the large molecular weight of LD4172 may lead to poor cellular permeability.

| SMILES | effect on RIPK1 degradation by LD4172 (RIPK1 [1]) | effect on RIPK1 degradation by LD4172 (RIPK1 [2]) | ternary complex formation, NanoBRET between RIPK1 and VHL (RIPK1 and VHL) | target engagement (TE) compared with LD4172 [3] | IC50 ([3]; HEK293 cells, tracer 500 nM, n=3, read-out: IC50 (nM), Fig. 2F) |
| --- | --- | --- | --- | --- | --- |
| CC(C)C[C@H](NC(=O)[C@H](CCc1ccccc1)NC(=O)CN1CCOCC1)C(=O)N[C@@H](Cc1ccccc1)C(=O)N[C@@H](CC(C)C)C(=O)[C@@]1(C)CO1 [carfilzomib] | reversed | reversed |  |  |  |
| Cc1ncsc1-c1ccc([C@H](C)NC(=O)[C@H]2C[C@H](O)CN2C(=O)[C@@H](NC(=O)CCCCCCCCCCC(=O)NCCCn2cc(-c3ccc4c(c3)CCN4C(=O)Cc3cccc(OC(F)(F)F)c3)c3c(N)ncnc32)C(C)(C)C)cc1 [LD4172-NC] |  |  | not | TE similar to that of LD4172 | 1850 nM |
| NS(=O)(=O)OC[C@@H]1C[C@@H](n2ccc3c(N[C@H]4CCc5ccccc54)ncnc32)C[C@@H]1O [MLN4924] | reversed | reversed |  |  |  |
